Experimental data reported in patent US5690904A, “Diagnostic radiopharmaceutical compounds (That)” (priority 1995, dated 1997).

Assays:
[1] = technetium complex; cited from earlier work
[2] = technetium complex, monkey; cited from earlier work
[3] = Electrophoresis of 99mTc complexes (charge); type: physicochemical
From the text: After labelling, and if required, the resultant ^99m Tc chelate complexes can be purified by passing through a C-18 Sep Pak column.

[4] = Biodistribution of 99mTc labelled complexes in rats (Tc brain bioassay, Example 64, Table I); type: in vivo, Female Sprague-Dawley rats; settings: rat, i.v. tail vein
Description: Distribution of the ^99m Tc labelled compounds was evaluated in rats. Female Sprague-Dawley rats weighing 140 to 220 g (average 170 g) were anaesthetised with sodium pentobarbital and were injected in a tail vein with 0.05 to 10mCi of the ^99m Tc labelled complex in a volume of 0.2 to 0.5 ml. At least two rats were injected for each time point.
The animals were sacrificed at 5 and 30 minutes post injection and selected organs were removed; the tails were discarded to avoid interference from the injection site. The radioactivity in each organ was measured at a standard geometry with a […] sodium iodide scintillation counter adjusted for the 140 KeV emission of ^99m Tc. The organs were also weighed to one hundredth of a gram and the activity was calculated as a percent of administered dose per gram. The important determinations are the amount of activity in the brain and the brain:blood ratio.

[5] = 0.1M NaH2PO4, pH 6.8, 250 volts, 25 min
[6] = 0.1M NaH2PO4, pH 6.8, 200 volts, 30 min
[7] = 0.05M NaH2PO4, pH 4.5, 300 volts, 30 min

Compound	Brain % dose ([4]; 5 min post injection) [% dose]	Brain:blood ([4]; 5 min post injection)	Heart % dose ([4]; 5 min post injection) [% dose]	Heart:blood ([4]; 5 min post injection)	Brain % dose ([4]; 30 min post injection) [% dose]	Brain:blood ([4]; 30 min post injection)	Heart % dose ([4]; 30 min post injection) [% dose]	Heart:blood ([4]; 30 min post injection)	other results
CC(C)(S)CNCCNCC(C)(C)S [BAT]	–	–	–	–	–	–	–	–	brain uptake / crossing of blood-brain barrier [1]: can cross the blood-brain barrier (BBB); retention of brain activity [1]: fails to show retention
CCOC(=O)[C@H](CS)NCCN[C@@H](CS)C(=O)OCC [ECD]	–	–	–	–	–	–	–	–	brain retention [2]: retention; brain uptake [2]: good
C[SH]1C(C)(C)C(=O)[N]2CC[N]3c4ccccc4[S][Tc]231=[O] (stereo not shown) [Example T711]	2.33	4.24	0.88	3.38	0.47	1.54	0.23	1.51	Electrophoresis (charge) [3, 5]: neutral
C[SH]1c2ccccc2[N]2CC[N]3C(=O)C(C)(C)[S][Tc]321=[O] (stereo not shown) [Example T712, ^99m Tc complex of N[2-(((methyl-2-mercapto)propionyl)amino)ethyl]-2-methylthio aniline]	1.69	1.04	0.61	1.07	1.73	1.13	0.53	0.74	Electrophoresis (charge) ([3]; 0.05M NaH2PO4, pH 4.5, 3000 volts, 30 min): neutral
CCC[SH]1C(C)(C)C(=O)[N]2CC[N]3c4ccccc4[S][Tc]231=[O] (stereo not shown) [Example T713, ^99m Tc complex of N[2-(((2-methyl-2-propylthio)propionyl)amino)ethyl]-2-amino-thiophenol]	1.55	4.34	0.59	3.68	0.46	1.83	0.19	1.84	Electrophoresis (charge) [3, 5]: neutral
CCCC[SH]1C(C)(C)C(=O)[N]2CC[N]3c4ccccc4[S][Tc]231=[O] (stereo not shown) [Example T714, ^99m Tc complex of N[2-(((2-methyl-2-butylthio)propionyl)amino)ethyl]-2-amino-thiophenol]	1.43	3.11	0.82	3.67	0.50	1.66	0.27	1.79	–
CC[SH]1C(C)(C)C(=O)[N]2CC[N]3c4ccccc4[S][Tc]231=[O] (stereo not shown) [Example T715, ^99m Tc complex of N[2-(((2-methyl-2-ethylthio)propionyl)amino)ethyl]-2-amino-thioplhenol]	2.55	5.19	0.84	3.73	0.51	1.36	0.23	1.40	–
CCC[SH]1c2ccccc2[N]2CC[N]3C(=O)C(C)(C)[S][Tc]321=[O] (stereo not shown) [Example T717, ^99m Tc N[2-(((2-methyl-2-mercapto)propionyl)amino)ethyl]-2-propylthioaniline]	1.27	1.21	0.98	1.88	1.24	1.23	0.48	1.00	Electrophoresis (charge) [3, 6]: neutral
C=CC[SH]1C(C)(C)C(=O)[N]2CC[N]3c4ccccc4[S][Tc]231=[O] (stereo not shown) [Example T719, ^99m Tc complex of N[2-(((2-methyl-2-allylthio)propionyl)amino)ethyl]-2-(4-methoxybenzylthio)aniline]	1.86	–	0.78	–	0.48	–	0.40	–	Brain:blood ([4]; 5 min post injection, 5 min): 1.32; Heart:blood ([4]; 5 min post injection, 5 min): 1.36; Brain:blood ([4]; 30 min post injection, 30 min): 0.26; Heart:blood ([4]; 30 min post injection, 30 min): 0.55
C=CC[SH]1C(C)(C)C(=O)[N]2CC[N]3c4ccccc4[S][Tc]231=[O] (stereo not shown) [Example T721, ^99m Tc complex of N[2-(((-methyl-2-allylthio)propionyl)amino)ethyl]-2-aminothiopenol]	1.82	–	0.75	–	0.30	–	0.36	–	Electrophoresis (charge) [3, 6]: neutral; Brain:blood ([4]; 5 min post injection, 5 min): 1.23; Heart:blood ([4]; 5 min post injection, 5 min): 1.16; Brain:blood ([4]; 30 min post injection, 30 min): 0.21; Heart:blood ([4]; 30 min post injection, 30 min): 0.49
C#CC[SH]1C(C)(C)C(=O)[N]2CC[N]3c4ccccc4[S][Tc]231=[O] (stereo not shown) [Example T722, ^99m Tc complex of N[2-(((2-methyl-2-(2-propynylthio))propionyl)amino)ethyl]-2-(4-methoxybenzylthio)aniline]	1.58	0.57	0.74	0.67	0.68	0.31	0.48	0.52	–
CC1(C)C(=O)[N]2CC[N]3c4ccccc4[S][Tc]23(=[O])[SH]1CCO (stereo not shown) [Example T726, ^99m Tc complex of N[2-(((2-methyl-2-(2-hydroxyethylthio))propionyl)amino)ethyl]-2-(4-methoxybenzylthio) aniline]	1.11	1.82	0.73	3.22	0.32	0.93	0.28	2.08	Electrophoresis (charge) [3, 6]: neutral
COC(=O)C[SH]1C(C)(C)C(=O)[N]2CC[N]3c4ccccc4[S][Tc]231=[O] (stereo not shown) [Example T727, ^99m Tc complex of N[2-(((2-methyl-2-(methoxycarbonylmethylenethio))propionyl)amino)ethyl]-2-(4-methoxybenzylthio)aniline]	0.09	0.09	0.45	1.26	0.07	0.06	0.18	0.42	Electrophoresis (charge) ([3]; 0.05M NaH2PO4, pH 4.5, 300 volts, 35 min): neutral
CC1(C)C(=O)[N]2CC[N]3c4ccccc4[S][Tc]23(=[O])[SH]1CCCN (stereo not shown) [Example T728, ^99m Tc complex of N[2-(((2-methyl-2-(3-aminopropylthio))propionyl)amino)ethyl]-2-(4-methoxybenzylthio) aniline]	0.03	0.04	1.68	4.36	0.03	0.05	0.74	2.11	–
C[SH]1c2ccccc2[N]2CC(=O)[N]3CC(C)(C)[S][Tc]321=[O] (stereo not shown) [Example T729, ^99m Tc complex of N[2-oxo-2(N^1 ((2-methyl-2-mercapto)propyl)amino)ethyl]-2-methylthioaniline]	0.87	0.19	0.70	0.34	0.21	0.08	0.28	0.36	Electrophoresis (charge) [3, 7]: neutral
CC1(C)C(=O)[N]2CC[N]3c4ccccc4[S][Tc]23(=[O])[SH]1CCCl (stereo not shown) [Example T730, ^99m Tc complex of N[2-(((2-methyl-2-(2-chloroethylthio))propionyl)amino)ethyl]-2-(4-methoxybenzylthio)aniline]	2.45	6.1	0.71	3.97	0.73	1.8	0.29	1.53	Electrophoresis (charge) [3, 7]: neutral
CC1(C)C(=O)[N]2CC[N]3c4ccccc4[S][Tc]23(=[O])[SH]1CCC#N (stereo not shown) [Example T731, ^99m Tc complex of N[2-(((2-methyl-2-(2-cyanoethylthio))propionyl)amino)ethyl]-2-(4-methoxybenzylthio)aniline]	1.49	0.42	1.01	0.68	0.60	0.21	0.58	0.42	Electrophoresis (charge) [3, 7]: neutral
CC(C)(S)CNCc1ccccc1NCC(C)(C)S [U-BAT]	–	–	–	–	–	–	–	–	brain uptake / crossing of blood-brain barrier [1]: exhibit brain uptake; retention of brain activity [1]: no retention
